We go through five compounds from US8067602B2, “Asymmetric cyanine fluorescent dyes, compositions and their use in staining biological samples” (Shenzhen Mindray Bio-Medical Electronics Co., Ltd., priority 2008, dated 2011).

Data set [1] in a line: Fluorescence quantum yield in ethanol. It counts as physicochemical. The settings on record: room temperature, triplicate, Rhodamine B as standard. The protocol: Each of the dyes were detected in triplicate at room temperature. Fluorescence quantum yields were calculated and averaged. With Rhodamine B as the standard (φF=0.97, ethanol), the fluorescence quantum yield for the known compound M in the ethanol solution was calculated to be φF=1.099×10^−2; for Dye-1, φF=1.590×10^−2; for Dye-2, φF=1.248×10^−2; and for Dye-3, φF=1.181×10^−2. The instrument used was UV-Vis spectrophotometer Model Lambda 35, and fluorescence spectrophotometer Model FL-4500.

The test system of data set [2] is soft-shelled turtle (Trionyx sinensis) liver RNA. The experiment in a line: Fluorescence intensity of dye in PBS with soft-shelled turtle liver RNA (excitation 633 nm). It counts as binding. The conditions noted are these: for ability to bind to nucleic acids versus Dye-0: concluded from FIG. 11; for increase in fluorescence intensity after binding RNA, comparison of dyes: identical concentrations, FIG. 11; for Relative fluorescence intensity after binding RNA / Relative fluorescence intensity before binding RNA: in PBS; for Relative fluorescence intensity after binding RNA: bound with turtle liver RNA; for Relative fluorescence intensity before binding RNA: no RNA; for Ratio of increase in fluorescence (after vs before binding): turtle liver RNA in PBS. The protocol:
(§1) An amount of Dye-1 was accurately weighed and sufficiently dissolved in 2.5 mL methanol/ethylene glycol (50:50 vol/vol) to prepare a dye solution at a concentration of 5 mM. This solution was filtered before use. Separate amounts of soft-shelled turtle (Trionyx sinensis) liver RNA were weighed and dissolved in PBS to obtain PBS buffers containing 30 μg/mL, 10 μg/mL, 3 μg/mL, 1 μg/mL of RNA. 2-μL aliquots of the prepared 5 mM dye solution were accurately measured and respectively combined in 1 mL PBS with 1 μL of the PBS buffers containing different concentrations of RNA. After reacting for a period of time, the complexes were detected for their emission spectra at the selected excitation wavelength of 633 nm. The detection temperature was at room temperature. The instrument used was fluorescence spectrophotometer Model FL-4500.
FIG. 4 is a comparison of the relative fluorescence strength of Dye-1 in PBS before and after it is bound with RNA. As can likewise be seen in the figure, when Dye-1 formed complexes with RNA, there occurred a rapid increase in fluorescence intensity accompanied by a certain degree of red shift of fluorescence, with the maximum […] peak at about 655 nm in the near-infrared region, which can avoid the interference from the background fluorescence of the organisms per se and therefore improve the accuracy of detection.
(§2) The detection procedures followed were those described in Example 10 and Example 11. The fluorescence spectra for the complexes of Dye-2 with different concentrations of DNA or RNA are shown in FIG. 5 and FIG. 6, respectively. The comparisons of fluorescence for Dye-2 before and after it is bound with DNA or with RNA in PBS are shown in FIG. 7 and FIG. 8, respectively.
(§3) The detection procedures followed were those described in Example 10 and Example 11. The comparisons of fluorescence for Dye-3 before and after it bound with DNA or with RNA in PBS are shown in FIG. 9 and FIG. 10, respectively.
Table 2 compares the ratios of increase in fluorescence for Dye-1, Dye-2 and Dye-3 after vs before they bound with soft-shelled turtle (Trionyx sinensis) liver RNA in PBS.
The detection procedure followed was that described in Example 10. The fluorescence spectra for Dye-1, Dye-2 and Dye-0 after they bound in identical concentrations with soft-shelled turtle (Trionyx sinensis) liver RNA are shown in FIG. 11.

The next data set concerns salmon sperm DNA. The experiment in a line: Fluorescence intensity of dye in PBS with salmon sperm DNA (excitation 633 nm). The settings on record: for fluorescence of the dye per se in PBS without nucleic acid: PBS without DNA/RNA; for Relative fluorescence intensity after binding DNA / Relative fluorescence intensity before binding DNA: in PBS; for Relative fluorescence intensity after binding DNA: bound with salmon sperm DNA; for Relative fluorescence intensity before binding DNA: no DNA; for Ratio of increase in fluorescence (after vs before binding): salmon sperm DNA in PBS. Format: binding. The protocol:
as §1, with “salmon sperm DNA” for “soft-shelled turtle (Trionyx sinensis) liver RNA”, “containing” for “containing 30 μg/mL, 10 μg/mL,”, “mg/mL,” for “μg/mL,”, “mg/mL, 0.3 mg/mL, 0.1 mg/mL” for “μg/mL”, “DNA.” for “RNA.”
FIG. 2 is a comparison of the relative fluorescence strength of Dye-1 in PBS before and after it is bound with DNA.
as §2, §3
Table 1 compares the ratios of increase in fluorescence for Dye-1, Dye-2 and Dye-3 after vs before they bound with salmon sperm DNA in PBS.

The conditions of data set [3]: ethanol; cited from earlier work.

As for `CCN1C=C/C(=C\C=C\c2sc3ccccc3[n+]2CC)c2ccccc21.[I-]` [Dye-0, reference compound], in data set [1], the “fluorescence quantum yield φF” value is given as 1.099×10^−2.

As to `CCOC(=O)CCCCC[n+]1c(/C=C/C=C2\C=CN(Cc3ccccc3)c3ccccc32)sc2ccccc21.[Br-]` [Dye-1], in data set [1], the “fluorescence quantum yield φF” value is given as 1.590×10^−2. In addition, the “change of fluorescence emission strength of dye/RNA complexes with RNA concentration” value in data set [2] (RNA buffers 1-30 μg/mL, FIG. 3) is on record as “increased rapidly with the increase in RNA concentration”. In addition, in data set [2], the “ability to bind to nucleic acids versus Dye-0” value is given as “superior to Dye-0”; the “increase in fluorescence intensity after binding RNA, comparison of dyes” value is reported as “largest magnitude of increase in fluorescence intensity”; the “Relative fluorescence intensity after binding RNA” value is given as 83.24; the “Relative fluorescence intensity before binding RNA” value is 1.82. The “Ratio of increase in fluorescence (after vs before binding)” value (shortened to “Ratio of increase in fluorescence”) in data set [2] was determined as 46. Moreover, the “change of fluorescence emission strength of dye/DNA complexes with DNA concentration” value in the data set with salmon sperm DNA (DNA buffers 0.1-3 mg/mL, FIG. 1) is on record as “increased rapidly with the increase in DNA concentration”. Also, in the data set on salmon sperm DNA, the “fluorescence of the dye per se in PBS without nucleic acid” value is on record as “scarcely generated any fluorescence”, the “Relative fluorescence intensity after binding DNA” value was 68.63, the “Relative fluorescence intensity before binding DNA” value came out at 1.82 and the “Ratio of increase in fluorescence” value was determined as 38.

As for `CCOC(=O)CCCN1C=C/C(=C\C=C\c2sc3ccccc3[n+]2CCO)c2ccccc21.[Br-]` [Dye-2], in data set [1], the “fluorescence quantum yield φF” value is recorded as 1.248×10^−2. In addition, in data set [2], the “ability to bind to nucleic acids versus Dye-0” value was “superior to Dye-0”; the “increase in fluorescence intensity after binding RNA, comparison of dyes” value is “marked increase in fluorescence intensity”; the “Relative fluorescence intensity after binding RNA” value was determined as 37.28; the “Relative fluorescence intensity before binding RNA” value was determined as 0.97. Besides, in data set [2], the “Ratio of increase in fluorescence” value is on record as 38. For the same compound, in the data set on salmon sperm DNA, the “fluorescence of the dye per se in PBS without nucleic acid” value is on record as “scarcely generated any fluorescence”, the “Relative fluorescence intensity after binding DNA” value was found to be 102.93, the “Relative fluorescence intensity before binding DNA” value was 0.97 and the “Ratio of increase in fluorescence” value was found to be 106.

Regarding `OCCN1C=C/C(=C\C=C\c2sc3ccccc3[n+]2CCOc2ccccc2)c2ccccc21.[Br-]` [Dye-3], the “fluorescence quantum yield φF” value in data set [1] is listed as 1.181×10^−2. In data set [2], the “Relative fluorescence intensity after binding RNA” value is reported as 33.57, the “Relative fluorescence intensity before binding RNA” value is on record as 1.64 and the “Ratio of increase in fluorescence” value is on record as 20. In the data set with salmon sperm DNA, the “fluorescence of the dye per se in PBS without nucleic acid” value is given as “weak fluorescence”, the “Relative fluorescence intensity after binding DNA” value is recorded as 94.37, the “Relative fluorescence intensity before binding DNA” value was found to be 1.64 and the “Ratio of increase in fluorescence” value came out at 55.

Regarding `CCN(CC)c1ccc2c(-c3ccccc3C(=O)O)c3ccc(=[N+](CC)CC)cc-3oc2c1.[Cl-]` [Rhodamine B], in data set [3], the “fluorescence quantum yield φF of the standard” value was 0.97.
